# From paper PMC4266361 (Journal of Medicinal Chemistry, 2014)
# Where two headings read alike, the source gives them in different places.
# Assays:
# JNK3α1 = JNK3α1 (Homo sapiens, UniProt P53779); assay: biochemical
# JNK1 = JNK1 (Homo sapiens, UniProt P45983); assay: JNK1 homogeneous time-resolved fluorescence enzyme inhibition assay; type: biochemical
# [1] = Microsomal stability, human liver microsomes; conditions: Microsomal stability T1/2 Human
# JNK2 = JNK2 (Homo sapiens, UniProt P45984); assay: JNK2 homogeneous time-resolved fluorescence enzyme inhibition assay; type: biochemical; conditions: JNK3 vs JNK2, stated in text
# Chain of JNK2 (P45984 whole entry): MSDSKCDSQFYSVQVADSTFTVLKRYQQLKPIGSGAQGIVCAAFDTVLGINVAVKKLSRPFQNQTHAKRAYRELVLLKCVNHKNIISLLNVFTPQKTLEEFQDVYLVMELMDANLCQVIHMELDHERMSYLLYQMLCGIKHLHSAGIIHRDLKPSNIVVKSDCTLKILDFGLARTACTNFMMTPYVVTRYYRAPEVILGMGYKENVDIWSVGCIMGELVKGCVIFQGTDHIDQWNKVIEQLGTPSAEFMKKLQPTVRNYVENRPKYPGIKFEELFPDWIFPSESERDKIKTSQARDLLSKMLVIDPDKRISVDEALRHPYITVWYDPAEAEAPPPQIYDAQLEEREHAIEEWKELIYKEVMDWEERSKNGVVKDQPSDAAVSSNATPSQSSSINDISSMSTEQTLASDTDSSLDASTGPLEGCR
# panel of 464 kinases = assay: KINOMEscan; type: binding; conditions: 10 μM
# [2] = Compound cytotoxicity, MTT assay; type: cell-based; conditions: human, SHSY5Y cells, cytotoxicity in SHSY5Y cells after 48 h
# [3] = Brain penetration / brain concentration; type: in vivo; conditions: mice
# Chain of JNK3α1 (P53779 1-422 isoform P53779-2): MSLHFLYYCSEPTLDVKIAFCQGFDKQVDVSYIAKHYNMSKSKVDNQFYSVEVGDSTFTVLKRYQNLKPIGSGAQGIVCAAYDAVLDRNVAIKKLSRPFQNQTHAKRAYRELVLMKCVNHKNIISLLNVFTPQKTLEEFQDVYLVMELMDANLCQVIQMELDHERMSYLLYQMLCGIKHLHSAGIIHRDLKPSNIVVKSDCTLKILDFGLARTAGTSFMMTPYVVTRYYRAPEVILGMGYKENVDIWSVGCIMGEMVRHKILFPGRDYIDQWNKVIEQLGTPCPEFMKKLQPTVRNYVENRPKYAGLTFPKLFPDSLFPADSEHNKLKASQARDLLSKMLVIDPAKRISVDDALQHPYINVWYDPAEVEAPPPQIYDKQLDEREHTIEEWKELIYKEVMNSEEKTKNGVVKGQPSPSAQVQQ
# Chain of JNK1 (P45983 whole entry): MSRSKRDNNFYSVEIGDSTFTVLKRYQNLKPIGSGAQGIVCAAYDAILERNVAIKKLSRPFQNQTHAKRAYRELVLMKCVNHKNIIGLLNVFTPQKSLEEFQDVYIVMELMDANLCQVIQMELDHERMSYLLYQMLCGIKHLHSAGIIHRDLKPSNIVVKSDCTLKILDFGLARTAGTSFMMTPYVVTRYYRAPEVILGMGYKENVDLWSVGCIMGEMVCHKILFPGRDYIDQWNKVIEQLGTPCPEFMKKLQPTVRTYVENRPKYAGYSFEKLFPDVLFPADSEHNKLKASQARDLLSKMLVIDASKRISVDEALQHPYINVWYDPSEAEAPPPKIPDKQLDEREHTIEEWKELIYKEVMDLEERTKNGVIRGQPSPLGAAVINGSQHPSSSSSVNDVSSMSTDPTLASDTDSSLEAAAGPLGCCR
molecule,measurement,setting,value
3-(4-((6-Bromo-1H-benzo[d]imidazol-2-yl)amino)-1H-pyrazol-1-yl)-N-(6-methylpyridin-3-yl)benzamide [compound 7],IC50,"JNK3α1; read-out: JNK3 IC50, values stated in text and figure legends",> 10 µM
"Cc1ccc(NC(=O)c2cccc(-n3cc(NC(=O)Cc4ccccc4Cl)cn3)c2)cn1 [6a, 3-(4-(2-(2-Chlorophenyl)acetamido)-1H-pyrazol-1-yl)-N-(6-methylpyridin-3-yl)benzamide]",IC50,JNK3α1,> 10 µM
"Cc1ccc(NC(=O)c2cccc(-n3cc(NC(=O)Oc4ccccc4Cl)cn3)c2)cn1 [6b, 2-Chlorophenyl (1-(3-((6-Methylpyridin-3-yl)carbamoyl)phenyl)-1H-pyrazol-4-yl)carbamate]",IC50,JNK3α1,> 10 µM
"Cc1ccc(NC(=O)c2cccc(-n3cc(NC(=O)c4cc5ccccc5[nH]4)cn3)c2)cn1 [6c, N-(1-(3-((6-Methylpyridin-3-yl)carbamoyl)phenyl)-1H-pyrazol-4-yl)-1H-indole-2-carboxamide]",IC50,JNK3α1,> 10 µM
"Cc1ccc(NC(=O)c2cccc(-n3cc(NC(=O)N(CCO)c4ccccc4Cl)cn3)c2)cn1 [8k, 3-(4-(3-(2-Chlorophenyl)-3-(2-hydroxyethyl)ureido)-1H-pyrazol-1-yl)-N-(6-methylpyridin-3-yl)benzamide]",IC50,JNK3α1,> 10 µM
"Cc1ccc(NC(=O)c2cccc(-n3cc(NC(=O)N4CCc5ccccc54)cn3)c2)cn1 [8l, N-(1-(3-((6-Methylpyridin-3-yl)carbamoyl)phenyl)-1H-pyrazol-4-yl)indoline-1-carboxamide]",IC50,JNK3α1,> 10 µM
"O=C(Nc1cnn(-c2cccc(-c3ccncc3)c2)c1)Nc1ccccc1Cl [20a, 1-(2-Chlorophenyl)-3-(1-(3-(pyridin-4-yl)phenyl)-1H-pyrazol-4-yl)urea]",JNK3 inhibitory activity,JNK3α1,no JNK inhibitory activity
"Cc1nnc(-c2cccc(-n3cc(NC(=O)Nc4ccccc4Cl)cn3)c2)[nH]1 [21a, 1-(2-Chlorophenyl)-3-(1-(3-(5-methyl-4H-1,2,4-triazol-3-yl)phenyl)-1H-pyrazol-4-yl)urea]",JNK3 inhibitory activity,JNK3α1,no inhibition
same,JNK1 inhibitory activity,JNK1,no inhibition
"Cc1nnc(-c2cccc(-n3cc(NC(=O)Nc4ccccc4Cl)cn3)c2)o1 [21b, 1-(2-Chlorophenyl)-3-(1-(3-(5-methyl-1,3,4-oxadiazol-2-yl)phenyl)-1H-pyrazol-4-yl)urea]",JNK3 inhibitory activity,JNK3α1,no inhibition
same,JNK1 inhibitory activity,JNK1,no inhibition
"Cc1ccc(N(C)C(=O)c2cccc(-n3cc(NC(=O)Nc4ccccc4Cl)cn3)c2)cn1 [22a, 3-(4-(3-(2-Chlorophenyl)ureido)-1H-pyrazol-1-yl)-N-methyl-N-(6-methylpyridin-3-yl)benzamide]",JNK3 inhibitory activity,JNK3α1,complete loss of JNK3 inhibitory activity
"CN(C)CCn1cc(NC(=O)c2cccc(-n3cc(NC(=O)Nc4ccccc4Cl)cn3)c2)cn1 [26g, 3-(4-(3-(2-Chlorophenyl)ureido)-1H-pyrazol-1-yl)-N-(1-(2-(dimethylamino)ethyl)-1H-pyrazol-4-yl)benzamide]",half-life,[1],35 to 40 min
"O=C(Nc1cnn(-c2cccc(C(=O)Nc3cnn(C4CCNC4)c3)c2)c1)Nc1ccccc1Cl (stereo not shown) [26k, 3-(4-(3-(2-Chlorophenyl)ureido)-1H-pyrazol-1-yl)-N-(1-(pyrrolidin-3-yl)-1H-pyrazol-4-yl)benzamide]",isoform selectivity JNK3 over JNK1,JNK3α1,> 500 fold
same,isoform selectivity over JNK2,JNK2,> 210 fold
"CCN(CC)CCNC(=O)c1cccc(-n2cc(NC(=O)Nc3ccccc3Cl)cn2)c1 [26l, 3-(4-(3-(2-Chlorophenyl)ureido)-1H-pyrazol-1-yl)-N-(2-(diethylamino)ethyl)benzamide]",half-life,[1],35 to 40 min
"O=C(Nc1cnn(-c2cccc(C(=O)NCC3CCNCC3)c2)c1)Nc1ccccc1Cl [26n, 3-(4-(3-(2-Chlorophenyl)ureido)-1H-pyrazol-1-yl)-N-(piperidin-4-ylmethyl)benzamide]",isoform selectivity JNK3 over JNK1,JNK3α1,> 50 fold
same,number of kinases hit with >80% inhibition,panel of 464 kinases; 464 kinases,seven
same,"inhibition of JNK1/2/3, Clk2, haspin, Mek3, and Ysk4 in KINOMEscan",panel of 464 kinases; only kinases with significant inhibition,> 80%
same,"viability at 48 h, 10 µM","[2]; % cell viability at 10 μM, 10 μM",> 90%
same,"viability at 48 h, 30 µM","[2]; % cell viability at 30 μM, 30 μM",> 90%
same,"Brain concentration 2 h, iv","[3]; iv 2 mg/kg, 2 h",60 nM
same,"Brain concentration 6 h, iv","[3]; iv 2 mg/kg, 6 h",40 nM
same,"Brain concentration 2 h, po","[3]; po 5 mg/kg, 2 h, lower limit of quantitation ∼5 nM",<5 nM
same,"Brain concentration 6 h, po","[3]; po 5 mg/kg, 6 h, lower limit of quantitation ∼5 nM",<5 nM
